Experimental data: patent US20150139950A1, “ALISPORIVIR TO TREAT HEPATITIS C VIRUS INFECTION” (Novartis AG, priority 2011, published 2015)

Tested on: Hepatitis C virus genotype 1
Assay: Clinical study of alisporivir/peg-IFNα2a/ribavirin in treatment naïve chronic HCV genotype 1 patients, by IL28B genotype
Format: in vivo, human
Description: An international, multicentre, randomised, double-blind, placebo-controlled, 4-arm parallel-group multiple dose study comparing three alisporivir/peg-IFNα2a/ribavirin regimens to standard of care treatment in 272 treatment naïve chronic HCV genotype 1 patients is provided.
Patients are randomized into one of 3 treatment arms (A, B and C) as described below in a 1:1:1 ratio. The randomization is stratified by baseline HCV RNA (HCV RNA<800000 IU/mL or HCV RNA≧800000 IU/mL) and BMI (BMI<25 kg/m2 or BMI≧25 kg/m2) at screening.
Alisporivir: 3 capsules of 200 mg (600 mg) alisporivir 2×/day orally for 1 week followed by 3 capsules of 200 mg alisporivir (600 mg) 1×/day for 47 weeks.
Pegylated interferon alfa 2a: 180 μg subcutaneously (s.c.) once weekly for 48 weeks
Ribavirin: 1000 mg/day (<75 kg) or 1200 mg/day (≧75 kg) orally in two divided doses for 48 weeks
Primary efficacy endpoint: proportion of patients achieving SVR 24 (HCV RNA<10 IU/mL at maximum 24 weeks after treatment end).
Genotyping of IL-28B by was carried out using the MALDI-TOF MS (matrix-assisted laser desorption/ionization time-of-flight mass spectrometer) technique which has emerged as a widely applicable method in molecular biology for fast and highly accurate DNA analysis. […]
Frequency of genetic polymorphisms of IL28B was calculated by treatment arm. […]

C/C=C/C[C@@H](C)[C@@H](O)[C@H]1C(=O)N[C@@H](CC)C(=O)N(C)[C@H](C)C(=O)N(CC)[C@@H](C(C)C)C(=O)N[C@@H](C(C)C)C(=O)N(C)[C@@H](CC(C)C)C(=O)N[C@@H](C)C(=O)N[C@H](C)C(=O)N(C)[C@@H](CC(C)C)C(=O)N(C)[C@@H](CC(C)C)C(=O)N(C)[C@@H](C(C)C)C(=O)N1C [alisporivir, Alisporivir]
treatment results of chronic Hepatitis C virus genotype 1 infection (patient with IL28B nonC/C genotype): particularly satisfactory treatment results
treatment of HCV (patients with IL28B C/C genotype): can also be used effectively
